Test results taken from the supplement of paper PMC10307832.

What was measured:
Assay in all cases: relative viability (nuclei count vs DMSO), 5 days (fraction); higher = more cells survive
AZD8055 + Vorinostat = compound: COc1ccc(-c2ccc3c(N4CCOC[C@@H]4C)nc(N4CCOC[C@@H]4C)nc3n2)cc1CO [AZD8055] + O=C(CCCCCCC(=O)Nc1ccccc1)NO [Vorinostat] (partner 1 µM)
Method in brief: (§1)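 After 5 days of treatment, lung cancer cells in 1536-well plates were fixed and stained in a single step (final 0.05% Triton X-100, 1% formaldehyde, 1 ug/ml Hoechst) and their nuclei counted on 4× images. Treatment had been applied by pin tool the day after seeding as one drug alone or as a fixed anchor-drug dose with five library-drug doses (not always all listed) in √10 steps. Relative viability is the nuclei count of treated wells divided by that of vehicle wells, and values are medians of duplicate plates.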

AZD8055 + Dasatinib = compound: COc1ccc(-c2ccc3c(N4CCOC[C@@H]4C)nc(N4CCOC[C@@H]4C)nc3n2)cc1CO [AZD8055] + Cc1nc(Nc2ncc(C(=O)Nc3c(C)cccc3Cl)s2)cc(N2CCN(CCO)CC2)n1 [Dasatinib] (partner 0.075 µM)
Method in brief: as §1

AZD8055 + Pictilisib = compound: COc1ccc(-c2ccc3c(N4CCOC[C@@H]4C)nc(N4CCOC[C@@H]4C)nc3n2)cc1CO [AZD8055] + CS(=O)(=O)N1CCN(Cc2cc3nc(-c4cccc5[nH]ncc45)nc(N4CCOCC4)c3s2)CC1 [Pictilisib] (partner 1 µM)
Method in brief: as §1

AZD8055 + Crizotinib = compound: COc1ccc(-c2ccc3c(N4CCOC[C@@H]4C)nc(N4CCOC[C@@H]4C)nc3n2)cc1CO [AZD8055] + C[C@@H](Oc1cc(-c2cnn(C3CCNCC3)c2)cnc1N)c1c(Cl)ccc(F)c1Cl [Crizotinib] (partner 1 µM)
Method in brief: as §1

| Cell Line | relative viability (AZD8055 + Vorinostat; first compound 0.01 µM) | relative viability (AZD8055 + Vorinostat; first compound 0.03162 µM) | relative viability (AZD8055 + Vorinostat; first compound 0.1 µM) | relative viability (AZD8055 + Vorinostat; first compound 0.3162 µM) | relative viability (AZD8055 + Vorinostat; first compound 1 µM) | relative viability (AZD8055 + Dasatinib; first compound 0.01 µM) | relative viability (AZD8055 + Dasatinib; first compound 0.03162 µM) | relative viability (AZD8055 + Dasatinib; first compound 0.1 µM) | relative viability (AZD8055 + Dasatinib; first compound 0.3162 µM) | relative viability (AZD8055 + Dasatinib; first compound 1 µM) | relative viability (AZD8055 + Pictilisib; first compound 0.01 µM) | relative viability (AZD8055 + Pictilisib; first compound 0.03162 µM) | relative viability (AZD8055 + Pictilisib; first compound 0.1 µM) | relative viability (AZD8055 + Pictilisib; first compound 0.3162 µM) | relative viability (AZD8055 + Pictilisib; first compound 1 µM) | relative viability (AZD8055 + Crizotinib; first compound 0.01 µM) | relative viability (AZD8055 + Crizotinib; first compound 0.03162 µM) | relative viability (AZD8055 + Crizotinib; first compound 0.1 µM) | relative viability (AZD8055 + Crizotinib; first compound 0.3162 µM) | relative viability (AZD8055 + Crizotinib; first compound 1 µM) |
| --- | --- | --- | --- | --- | --- | --- | --- | --- | --- | --- | --- | --- | --- | --- | --- | --- | --- | --- | --- | --- |
| NCI-H647 | 0.81 | 0.416 | 0.308 | 0.152 | 0.114 | 0.179 | 0.136 | 0.132 | 0.0579 | 0.144 | 0.46 | 0.329 | 0.282 | 0.16 | 0.149 | 1 | 0.619 | 0.445 | 0.303 | 0.177 |
| NCI-H650 | 0.496 | 0.352 | 0.478 | 0.231 | 0.146 | 0.469 | 0.393 | 0.36 | 0.292 | 0.231 | 0.905 | 0.736 | 0.623 | 0.307 | 0.304 | 0.763 | 0.712 | 0.626 | 0.395 | 0.292 |
| NCI-H661 | 0.866 | 0.791 | 0.707 | 0.465 | 0.4 | 0.845 | 0.867 | 0.633 | 0.368 | 0.305 | 0.394 | 0.424 | 0.322 | 0.302 | 0.27 | 1.06 | 1.1 | 1.07 | 0.634 | 0.567 |
| NCI-H727 | 1.3 | 1.12 | 1.18 | 0.869 | 0.778 | 0.444 | 0.464 | 0.41 | 0.28 | 0.312 | 0.4 | 0.379 | 0.28 | 0.225 | 0.283 | 0.994 | 0.896 | 0.536 | 0.292 | 0.279 |
| NCI-H838 | 0.695 | 0.577 | 0.447 | 0.428 | 0.346 | 0.269 | 0.264 | 0.262 | 0.231 | 0.217 | 0.439 | 0.212 | 0.212 | 0.219 | 0.257 | 0.969 | 0.745 | 0.476 | 0.293 | 0.307 |
| NCI-H1355 | 0.587 | 0.541 | 0.414 | 0.214 | 0.235 | 0.551 | 0.443 | 0.435 | 0.218 | 0.263 | 0.419 | 0.374 | 0.269 | 0.251 | 0.238 | 1.12 | 0.851 | 0.587 | 0.231 | 0.231 |
| NCI-H1437 | 0.914 | 0.786 | 0.708 | 0.512 | 0.311 | 0.498 | 0.444 | 0.275 | 0.187 | 0.124 | 0.394 | 0.225 | 0.223 | 0.124 | 0.127 | 0.946 | 0.963 | 0.899 | 0.337 | 0.19 |
| NCI-H1650 | 0.729 | 0.436 | 0.521 | 0.265 | 0.236 | 0.317 | 0.302 | 0.292 | 0.19 | 0.265 | 0.551 | 0.575 | 0.479 | 0.393 | 0.36 | 0.919 | 1.24 | 1.02 | 0.518 | 0.43 |
